Experimental data: US8481679B2, “Immobilizing an entity in a desired orientation on a support material” (Arizona Board of Regents Acting on behalf of Arizona State …, priority 2007, dated 2013)

Legend:
[1] = system: carbonic anhydrase; experiment: Corning Epic binding of dansylamide to carbonic anhydrase immobilized by attachment peptides; details: 1 μM dansylamide; six carbonic anhydrase concentrations, four replicates each; nearly all replicates
Method: Dansylamide, a known inhibitor of carbonic anhydrase, was applied to a range of concentrations (31 nM to 1 μM) of carbonic anhydrase immobilized in Epic wells by peptides CA4, CA8, CA9, CA10, CA11, and CA12. […] Wavelength shifts on the order of approximately 10 to 20 pm were observed upon application of the dansylamide to carbonic anhydrase immobilized at 1 μM concentration on peptides CA4, CA8, and CA11, confirming that the carbonic anhydrase was immobilized in an orientation that preserved the availability of the binding site (active site) and ability of the enzyme to consistently bind the inhibitor dansylamide, and confirming that the attachment peptides were able to immobilize carbonic anhydrase in the wells of an Epic plate in a manner such that binding of dansylamide to the carbonic anhydrase was readily detectable by the Epic technology.
For nearly all replicates, a shift on the order of 20 pm was observed upon application of the dansylamide.

[2] = system: carbonic anhydrase; experiment: Corning Epic binding of carbonic anhydrase to wells pre-coated with attachment peptides; details: carbonic anhydrase at 1 μM; 30 and 180 minute incubation
Excerpt: The selected candidate peptides were applied to the wells of a Corning Epic System 384-well microplate by linking the C-terminal cysteines of the peptides to surface amines of the Epic microplate wells via the maleimide and amine moieties, respectively, of a BMPH linker (Pierce). The immobilization of the peptides to the Epic microplate wells without carbonic anhydrase was first evaluated to identify any peptides binding poorly to the well surface, and to provide a basis for computing the maximum wavelength shift theoretically obtainable with optimal binding of the carbonic anhydrase to the peptides at a concentration sufficient to saturate. […] This could reflect inadequate binding to the surface due to poor solubility of the poorly binding peptides.
Carbonic anhydrase was applied in Epic microplate wells in which the selected peptides had been pre-applied to the well surface, in groups of four replicate wells and in carbonic anhydrase concentrations ranging from 31 nM to 1 μM. Observed wavelength shifts after 30 minute incubation of the indicated concentrations of carbonic anhydrase with peptides CA4, CA8, CA9, CA10, CA11, and CA12 are shown in FIG. 7(a).

[3] = target: beta-galactosidase (Escherichia coli, UniProt P00722); details: 50 nM beta-galactosidase, 5 μM FDG, 0.5 hour preincubation; selected peptide at 2, 10, 50, 100 μM
Method: The enzyme activity of the entity beta-galactosidase when bound to the selected peptide having the sequence […] (SEQ ID NO. 2), was evaluated in solution phase by preincubating varying concentrations of the peptide with beta-galactosidase for 0.5 hour, then adding substrate FDG in solution and measuring 520 nm fluorescence upon 488 nm excitation at a series of time points.

[4] = system: T1, comparison attachment peptide (sequence ESVPTDLPMDTMEGKNWGSC (SEQ ID NO. 14))
T1 sequence: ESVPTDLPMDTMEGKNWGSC

[5] = system: T2, selected peptide having the sequence FRNFPVPVIFRYLNPWPGSC (SEQ ID NO. 2)
T2 sequence: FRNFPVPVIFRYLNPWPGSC

Sequence of beta-galactosidase (P00722 2-1024): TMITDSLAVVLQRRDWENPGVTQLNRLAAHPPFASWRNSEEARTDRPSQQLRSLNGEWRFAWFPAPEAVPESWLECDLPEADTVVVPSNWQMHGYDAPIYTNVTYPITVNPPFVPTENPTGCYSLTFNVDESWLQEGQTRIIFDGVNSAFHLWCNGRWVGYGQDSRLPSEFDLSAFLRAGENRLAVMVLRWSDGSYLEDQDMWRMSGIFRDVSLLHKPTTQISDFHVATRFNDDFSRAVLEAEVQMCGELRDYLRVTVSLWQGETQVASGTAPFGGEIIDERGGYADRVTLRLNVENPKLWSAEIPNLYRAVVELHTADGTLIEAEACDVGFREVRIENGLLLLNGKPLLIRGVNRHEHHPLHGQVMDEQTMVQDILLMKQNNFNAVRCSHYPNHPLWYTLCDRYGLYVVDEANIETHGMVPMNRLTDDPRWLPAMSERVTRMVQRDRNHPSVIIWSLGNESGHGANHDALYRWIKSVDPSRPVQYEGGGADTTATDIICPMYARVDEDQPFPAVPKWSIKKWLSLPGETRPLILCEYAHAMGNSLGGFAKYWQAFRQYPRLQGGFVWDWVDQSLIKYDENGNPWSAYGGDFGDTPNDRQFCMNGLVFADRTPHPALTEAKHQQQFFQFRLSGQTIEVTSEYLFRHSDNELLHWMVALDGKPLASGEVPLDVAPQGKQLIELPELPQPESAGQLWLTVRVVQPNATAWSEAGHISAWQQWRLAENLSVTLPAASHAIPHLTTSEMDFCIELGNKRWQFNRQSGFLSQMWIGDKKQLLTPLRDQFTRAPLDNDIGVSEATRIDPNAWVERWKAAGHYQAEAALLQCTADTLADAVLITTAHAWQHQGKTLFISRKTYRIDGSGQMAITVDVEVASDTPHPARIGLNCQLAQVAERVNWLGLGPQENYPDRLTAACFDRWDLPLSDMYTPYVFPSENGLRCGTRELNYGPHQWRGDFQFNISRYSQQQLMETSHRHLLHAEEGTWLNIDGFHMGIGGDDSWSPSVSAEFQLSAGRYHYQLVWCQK

Row | Substance | wavelength shift on binding of carbonic anhydrase to peptide [2] | also measured
1 | CA11: 20-residue candidate attachment peptide for carbonic anhydrase, C-terminal glycine-serine-cysteine; sequence only in FIG. 6A (IEDTYLRFRHYGWYNNNGSC; CA11 (Carbonic Anhydrase Peptide 11)) | wavelength shifts which persisted even after 180 minutes incubation | wavelength shift upon application of dansylamide (time course) [1]: ~20 pm
2 | CA4: 20-residue candidate attachment peptide for carbonic anhydrase, C-terminal glycine-serine-cysteine; sequence only in FIG. 6A (HWHHRWWHHWKHPHHWRGSC; CA4 (Carbonic Anhydrase Peptide 4)) | wavelength shifts which persisted even after 180 minutes incubation | –
3 | CA9: 20-residue candidate attachment peptide for carbonic anhydrase, C-terminal glycine-serine-cysteine; sequence only in FIG. 6A (RVFKRYKRWLHVSRYYFGSC; CA9 (Carbonic Anhydrase Peptide 9)) | wavelength shifts which persisted even after 180 minutes incubation | –
4 | ESVPTDLPMDTMEGKNWGSC [SEQ ID NO. 14] | – | 520 nm fluorescence intensity (beta-galactosidase activity) relative to beta-galactosidase alone [3]: slightly higher than for beta-galactosidase alone
5 | FRNFPVPVIFRYLNPWPGSC [SEQ ID NO. 2] | – | 520 nm fluorescence intensity (beta-galactosidase activity) relative to beta-galactosidase alone [3]: significantly lower than that for beta-galactosidase alone
6 | CA12: 20-residue candidate attachment peptide for carbonic anhydrase, C-terminal glycine-serine-cysteine; sequence only in FIG. 6A (SIGIYGHAIARPGGWYFGSC; CA12 (Carbonic Anhydrase Peptide 12)) | wavelength shifts which persisted even after 180 minutes incubation | –
7 | beta-galactosidase | – | 520 nm fluorescence intensity (FDG hydrolysis by beta-galactosidase, solution phase) [4]: slightly higher than for beta-galactosidase alone; 520 nm fluorescence intensity (FDG hydrolysis by beta-galactosidase, solution phase; peptide at 2, 10, 50 and 100 µM) [5]: at all concentrations was significantly lower than that for beta-galactosidase alone
8 | CA8: 20-residue candidate attachment peptide for carbonic anhydrase, C-terminal glycine-serine-cysteine; sequence only in FIG. 6A (RHWKWHWWRRHHPHHWFGSC; CA8 (Carbonic Anhydrase Peptide 8)) | wavelength shifts which persisted even after 180 minutes incubation | –
